Assay results taken from patent publication US20260193271A1, “PAN-KRAS INHIBITOR COMPOUND” (ADLAI NORTYE BIOPHARMA CO., LTD., priority 2022, published 2026).

Key:
SW480 (G12V) = assay: In vitro cell proliferation inhibition test (CellTiter-Glo), SW480; type: cell-based; settings: Homo sapiens, SW480 colon cell line, KRAS (p.G12V), 72 h co-incubation
Description: (§1) Test Example 1: In Vitro Cell Proliferation Inhibition Test
(§2) Due to the diversity of RAS mutations and in order to evaluate the activity of compounds in different RAS mutation cell lines, we selected KRAS^WT, KRAS^G12C, KRAS^G12D, KRAS^G12V and BRAF mutation cell lines (see the table below) for in vitro activity evaluation and screening of compounds.
(§3) Protocol: CellTiter-Glo® Cell Luminescent Viability Assay (Promega)
(§4) According to the doubling time of different cell lines, different numbers of cells (1000-5000 cells/well) were seeded in 96-well plates containing 180 μl of corresponding culture medium and cultured overnight in a cell culture incubator at 37° C. with 5% CO2. On the second day, the test compound was pre-diluted 3-fold with culture medium, with the highest concentration being 100 μM, for a total of 10 concentration gradients; then 20 μl of culture medium containing different concentrations of the compound was added to the cells in the 96-well plate to ensure that the final concentration of the compound was up to 10 μM, with 10 concentration gradients of 3-fold dilution. After the cells and compounds were co-incubated for 72 h, the 96-well plate was removed from the incubator and equilibrated at room temperature for 30 min. Then, 25 μl of CellTiter-Glo® Reagent was added to each well and mixed thoroughly. The mixture was incubated at room temperature for 10 min, and then 100 μl of the sample was transferred to a white 96-well plate (OptiPlate™-96, PerkinElmer). The […] signal value was read using a multi-function microplate reader (SpectraMax® i3x, Molecular devices). The signal values were then standardized, and the curve was fitted using a four-parameter regression equation to calculate the half maximal inhibitory concentration (IC50) of the compound on the cell line.

AsPC-1 (G12D) = assay: In vitro cell proliferation inhibition test (CellTiter-Glo), AsPC-1; type: cell-based; settings: Homo sapiens, ASPC1, AsPC-1 pancreas cell line, KRAS (p.G12D), 72 h co-incubation
Description: as §1, §2, §3, §4

SMILES | IC50 (SW480 (G12V)) | IC50 (AsPC-1 (G12D))
CCn1c(-c2cc(-c3cccc(CN4CCOCC4)c3)cnc2[C@H](C)OC)c2c3cc(ccc31)-c1csc(n1)C[C@H](NC(=O)[C@H]1C[C@@H]1C)C(=O)N1CCC[C@H](N1)C(=O)OCC(C)(C)C2 (atropisomer, axis not shown) [Compound 9, (1S,2S)-N-((6^3S,4S,Z)-1^1-ethyl-1^2-(2-((S)-1-methoxyethyl)-5-(3-(morpholinomethyl)phenyl)pyridin-3-yl)-10,10-dimethyl-5,7-dioxo-6^1,6^2,6^3,6^4,6^5,6^6-hexahydro-1^1H-8-oxa-2(4,2)-thiazola-1(5,3)-indola-6(1,3)-pyridazinacycloundecaphane-4-yl)-2-methylcyclopropane-1-carboxamide] | 18 nM | 3.5 nM
CCn1c(-c2cc(-c3ccc4c(c3)CN(C)CC4)cnc2[C@H](C)OC)c2c3cc(ccc31)-c1csc(n1)C[C@H](NC(=O)[C@H]1C[C@@H]1C)C(=O)N1CCC[C@H](N1)C(=O)OCC(C)(C)C2 (atropisomer, axis not shown) [Compound 10, (1S,2S)-N-((6^3S,4S,Z)-1^1-ethyl-1^2-(2-((S)-1-methoxyethyl)-5-(2-methyl-1,2,3,4-tetrahydroisoquinolin-7-yl)pyridin-3-yl)-10,10-dimethyl-5,7-dioxo-6^1,6^2,6^3,6^4,6^5,6^6-hexahydro-1^1H-8-oxa-2(4,2)-thiazola-1(5,3)-indola-6(1,3)-pyridazinacycloundecaphane-4-yl)-2-methylcyclopropane-1-carboxamide] | 0.5 nM | 18 nM
CCn1c(-c2cc(-c3cc(CN4CCOCC4)ccn3)cnc2[C@H](C)OC)c2c3cc(ccc31)-c1csc(n1)C[C@H](NC(=O)[C@H]1C[C@@H]1C)C(=O)N1CCC[C@H](N1)C(=O)OCC(C)(C)C2 (atropisomer, axis not shown) [Compound 11, (1S,2S)-N-((6^3S,4S,Z)-1^1-ethyl-1^2-(6′-((S)-1-methoxyethyl)-4-(morpholinomethyl)-[2,3′-bipyridin]-5′-yl)-10,10-dimethyl-5,7-dioxo-6^1,6^2,6^3,6^4,6^5,6^6-hexahydro-1^1H-8-oxa-2(4,2)-thiazola-1(5,3)-indola-6(1,3)-pyridazinacycloundecaphane-4-yl)-2-methylcyclopropane-1-carboxamide] | 3.2 nM | 2.1 nM
CCn1c(-c2cc(-c3ccc(CN4CCOCC4)cn3)cnc2[C@H](C)OC)c2c3cc(ccc31)-c1csc(n1)C[C@H](NC(=O)[C@H]1C[C@@H]1C)C(=O)N1CCC[C@H](N1)C(=O)OCC(C)(C)C2 (atropisomer, axis not shown) [Compound 12, (1S,2S)-N-((6^3S,4S,Z)-1^1-ethyl-1^2-(6′-((S)-1-methoxyethyl)-5-(morpholinomethyl)-[2,3′-bipyridin]-5′-yl)-10,10-dimethyl-5,7-dioxo-6^1,6^2,6^3,6^4,6^5,6^6-hexahydro-1^1H-8-oxa-2(4,2)-thiazola-1(5,3)-indola-6(1,3)-pyridazinacycloundecaphane-4-yl)-2-methylcyclopropane-1-carboxamide] | 6.6 nM | 16 nM
CCn1c(-c2cc(-c3cnn(CCN4CCOCC4)c3)cnc2[C@H](C)OC)c2c3cc(ccc31)-c1csc(n1)C[C@H](NC(=O)[C@H]1C[C@@H]1C)C(=O)N1CCC[C@H](N1)C(=O)OCC(C)(C)C2 (atropisomer, axis not shown) [Compound 15, (1S,2S)-N-((6^3S,4S,Z)-1^1-ethyl-1^2-(2-((S)-1-methoxyethyl)-5-(1-(2-morpholinoethyl)-1H-pyrazol-4-yl)pyridin-3-yl)-10,10-dimethyl-5,7-dioxo-6^1,6^2,6^3,6^4,6^5,6^6-hexahydro-1^1H-8-oxa-2(4,2)-thiazola-1(5,3)-indola-6(1,3)-pyridazinacycloundecaphane-4-yl)-2-methylcyclopropane-1-carboxamide] | 6 nM | 3 nM
CCn1c(-c2cc(-c3cnn([C@@H]4CCN(C)C4)c3)cnc2[C@H](C)OC)c2c3cc(ccc31)-c1csc(n1)C[C@H](NC(=O)[C@H]1C[C@@H]1C)C(=O)N1CCC[C@H](N1)C(=O)OCC(C)(C)C2 (atropisomer, axis not shown) [Compound 16, (1S,2S)-N-((6^3S,4S,Z)-1^1-ethyl-1^2-(2-((S)-1-methoxyethyl)-5-(1-((R)-1-methylpyrrolidin-3-yl)-1H-pyrazol-4-yl)pyridin-3-yl)-10,10-dimethyl-5,7-dioxo-6^1,6^2,6^3,6^4,6^5,6^6-hexahydro-1^1H-8-oxa-2(4,2)-thiazola-1(5,3)-indola-6(1,3)-pyridazinacycloundecaphane-4-yl)-2-methylcyclopropane-1-carboxamide] | 7.9 nM | 1.6 nM

Continued by falling IC50 (SW480 (G12V)), values first:

IC50 (SW480 (G12V)) | IC50 (AsPC-1 (G12D)) | SMILES
4.5 nM | 0.57 nM | CCn1c(-c2cc(-c3cnn(CCN4CCN(C)CC4)c3)cnc2[C@H](C)OC)c2c3cc(ccc31)-c1csc(n1)C[C@H](NC(=O)[C@H]1[C@H](C)[C@@H]1C)C(=O)N1CCC[C@H](N1)C(=O)OCC(C)(C)C2 (atropisomer, axis not shown) [Compound 19, (1r,2R,3S)-N-((6^3S,4S,Z)-1^1-ethyl-1^2-(2-((S)-1-methoxyethyl)-5-(1-(2-(4-methylpiperazin-1-yl)ethyl)-1H-pyrazol-4-yl)pyridin-3-yl)-10,10-dimethyl-5,7-dioxo-6^1,6^2,6^3,6^4,6^5,6^6-hexahydro-1^1H-8-oxa-2(4,2)-thiazola-1(5,3)-indola-6(1,3)-pyridazinacycloundecaphane-4-yl)-2,3-dimethylcyclopropane-1-carboxamide]
2.5 nM | 0.31 nM | CCn1c(-c2cc(-c3cnn(C4CN(C)C4)c3)cnc2[C@H](C)OC)c2c3cc(ccc31)-c1csc(n1)C[C@H](NC(=O)[C@H]1[C@H](C)[C@@H]1C)C(=O)N1CCC[C@H](N1)C(=O)OCC(C)(C)C2 (atropisomer, axis not shown) [Compound 17, (1r,2R,3S)-N-((6^3S,4S,Z)-1^1-ethyl-1^2-(2-((S)-1-methoxyethyl)-5-(1-(1-methylazetidin-3-yl)-1H-pyrazol-4-yl)pyridin-3-yl)-10,10-dimethyl-5,7-dioxo-6^1,6^2,6^3,6^4,6^5,6^6-hexahydro-1^1H-8-oxa-2(4,2)-thiazola-1(5,3)-indola-6(1,3)-pyridazinacycloundecaphane-4-yl)-2,3-dimethylcyclopropane-1-carboxamide]
1.4 nM | 0.45 nM | CCn1c(-c2cc(-c3cnn(C4CCN(C)CC4)c3)cnc2[C@H](C)OC)c2c3cc(ccc31)-c1csc(n1)C[C@H](NC(=O)[C@H]1[C@H](C)[C@@H]1C)C(=O)N1CCC[C@H](N1)C(=O)OCC(C)(C)C2 (atropisomer, axis not shown) [Compound 18, (1r,2R,3S)-N-((6^3S,4S,Z)-1^1-ethyl-1^2-(2-((S)-1-methoxyethyl)-5-(1-(1-methylpiperidin-4-yl)-1H-pyrazol-4-yl)pyridin-3-yl)-10,10-dimethyl-5,7-dioxo-6^1,6^2,6^3,6^4,6^5,6^6-hexahydro-1^1H-8-oxa-2(4,2)-thiazola-1(5,3)-indola-6(1,3)-pyridazinacycloundecaphane-4-yl)-2,3-dimethylcyclopropane-1-carboxamide]
